From patent publication US11214803B2, “Modulators of YAP1 expression” (Ionis Pharmaceuticals, Inc., priority 2019, dated 2022)
Strand notation (5' to 3'): a small letter for the sugar, then the base; units joined by * are phosphorothioate-linked, units joined directly phosphodiester-linked; [ ] holds rarer units or linkages, { } end groups; capitals alone tell only the bases. k = constrained ethyl (cEt); [5mC] = 5-methylcytosine; d = 2'-deoxy (DNA)

How the values were obtained:
Yap1 mRNA [1] = experiment: Yap1 mRNA in SCC25 cells, RNA analysis (Example 25); assay type: cell-based, human; settings: free uptake, 48 hours, RTS4814, normalized to actin-beta
Method: Modified oligonucleotides described in the studies above were tested at various doses in squamous cell carcinoma cell SCC25. A control oligonucleotide 792169 (a 3-10-3 cET gapmer with a full phosphorothioate backbone, […], designated herein as SEQ ID No.: 2940; is not complementary to any known human gene) was also tested.
Cultured SCC25 cells at a density of 5,000 cells per well were treated using free uptake with modified oligonucleotides diluted to concentrations described in the tables below. After approximately 48 hours, Yap1 mRNA levels were measured as previously described using the Human Yap1 primer-probe set RTS4814. Yap1 mRNA levels were normalized to actin-beta content, as measured by primer probe set RTS5002 (forward sequence […], designated herein as SEQ ID NO.: 20; reverse sequence […], designated herein as SEQ ID NO.: 21; probe sequence […], designated herein as SEQ ID NO.: 22). Results are presented in the tables below as percent control of the amount of Yap1 mRNA relative to untreated control cells (% UTC).

Yap1 mRNA [2] = experiment: Inhibition of human Yap1 mRNA in SNU449 hepatocellular carcinoma xenograft tumors (Example 26); assay type: in vivo; settings: SNU449 xenografts in NSG mice, 50 mg/kg twice weekly for five days, relative to PBS treated animals
Summary of the method: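 Female NSG mice bearing subcutaneous SNU449 xenografts (about 100 mm^3) dosed with modified oligonucleotides at 50 mg/kg twice weekly for five days, four per group. Tumour Yap1 mRNA measured by RT-qPCR, normalized to actin-beta, expressed as % of PBS-treated controls.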

[3] = Tolerability in Sprague-Dawley rats, body and organ weights (Example 22); assay type: in vivo; settings: male Sprague-Dawley rats, 50 mg/kg s.c. weekly for 6 weeks (7 doses)
Method: Terminal body weight was measured prior to necropsy. Ionis oligonucleotides that caused any changes in organ weights outside the expected range for modified oligonucleotides were excluded from further studies.

Yap1 mRNA [4] = experiment: Inhibition of human Yap1 mRNA in squamous cell carcinoma CAL27 xenograft tumors (Example 28); assay type: in vivo; settings: CAL27 xenografts in NCr-Foxn1nu mice, relative to PBS treated
Method: A squamous cell carcinoma CAL27 xenograft tumor model was used to evaluate activity of modified oligonucleotides targeted to human Yap1. Five million CAL27 cells in 30% matrigel were implanted subcutaneously into the flanks of female CrTac:NCr-Foxn1nu mice (from Taconic) at 4-6 weeks of age. Groups of four mice each were administered with either 15 mg/kg or 30 mg/kg of modified oligonucleotides daily for five days after tumor size had reached ˜100 mm^3 (about 3 weeks post implantation). Tumors were collected and tested for Yap1 mRNA knockdown by RT-qPCR. Yap1 mRNA levels were measured as previously described using the Human Yap1 primer-probe set RTS4814. Yap1 mRNA levels were normalized to actin-beta content, as measured by primer probe set RTS5002. Results are presented in the tables below as percent control of the amount of Yap1 mRNA relative to PBS treated […].

[5] = Cynomolgus monkey tolerability, pro-inflammatory proteins analysis, Complement C3 and CRP (Example 34); assay type: in vivo; settings: cynomolgus monkeys, 35 mg/kg subcutaneously; for CRP: day 44
Method: To evaluate any inflammatory effect of Ionis oligonucleotides in cynomolgus monkeys, blood samples were taken for analysis. The monkeys were fasted overnight prior to blood collection. On day 42 (pre-dose and 24 hours post-dose), approximately 0.8 mL of blood was collected from each animal and put into tubes without anticoagulant for serum separation. […] Complement C3 were measured using a Toshiba 120 FR NEO chemistry analyzer (Toshiba Co., Japan). […] Another marker of inflammation, C-Reactive Protein (CRP) was tested together with the clinical chemistry parameters tested for liver function above.

[6] = Cynomolgus monkey tolerability, hematology (Example 34); assay type: in vivo, cynomolgus monkeys; settings: for BAS / EOS / HCT / HGB / LUC / LYM / MCH / MCHC / MCV / MON / NEU / PLT / RBC / RCDW / Retic / WBC: cynomolgus monkey, in vivo, sc, 35 mg/kg; for MPV: cynomolgus monkeys, 35 mg/kg subcutaneously, day 44
Method: To evaluate any effect of Ionis oligonucleotides in cynomolgus monkeys on hematologic parameters, blood samples of approximately 0.5 mL of blood was collected from each of the available study animals on day 44. The samples were collected in tubes containing K2-EDTA. Samples were analyzed for red blood cell (RBC) count, Hemoglobin (HGB), Hematocrit (HCT), Mean corpuscular volume (MCV), mean corpuscular hemoglobin (MCH), mean corpuscular hemoglobin concentration (MCHC), RBC Distribution Width (RCDW), reticulocyte count (Retic), platelet count (PLT), mean platelet volume (MPV), white blood cells (WBC) count, individual white blood cell counts, such as that of monocytes (MON), neutrophils (NEU), lymphocytes (LYM), eosinophils (EOS), basophils (BAS), and large unstained cells (LUC) using an ADVIA2120i hematology analyzer (Siemens, USA).

[7] = rat, in vivo, sc, 50 mg/kg
Method: Male Sprague-Dawley rats were maintained on a 12-hour light/dark cycle and fed ad libitum with Purina normal rat chow. Groups of 4 Sprague-Dawley rats each were weekly injected subcutaneously with 50 mg/kg of Ionis oligonucleotide for 6 weeks (total 7 doses). Forty-eight hours after the last dose, the rats were euthanized; and organs, urine and plasma were harvested for further analysis.
To evaluate the effect of Ionis oligonucleotides on kidney function, urinary levels of total protein and creatinine were measured using an automated clinical chemistry analyzer (Hitachi Olympus AU400c, Melville, N.Y.).

[8] = Cynomolgus monkey tolerability, urine analysis (Example 34); settings: cynomolgus monkeys, 35 mg/kg subcutaneously, day 44
Method: Prior to the study, the monkeys were kept in quarantine during which the animals were observed daily for general health. The monkeys were 2-4 years old and weighed 2-4 kg. Eleven groups of 4 randomly assigned male cynomolgus monkeys each were injected subcutaneously with Ionis oligonucleotide or saline in a clock-wise rotation between four different sites on the back. Following loading doses on days 1, 3, 5 and 7, the monkeys were dosed once per week (on days 14, 21, 28, 35, and 42) with 35 mg/kg of Ionis oligonucleotide.
Food was removed overnight the day before fresh urine collection, but water was supplied. Fresh urine samples for urinalysis and urine chemistry were collected from all animals using a clean cage pan on wet ice (first in the morning) on day 44. Urinalysis/Urine Chemistry parameters creatinine (UCRE), microprotein (UTP), urine microalbumin (UALB), and protein/creatinine (P/C) ratio were measured using a Toshiba 120FR automated chemistry analyzer (Toshiba Co., Japan).

| Substance | Yap1 mRNA, % UTC (Yap1 mRNA [1]; 0.04 μM) | Yap1 mRNA, % UTC (Yap1 mRNA [1]; 0.2 μM) | Yap1 mRNA, % UTC (Yap1 mRNA [1]; 1 μM) | Yap1 mRNA, % UTC (Yap1 mRNA [1]; 5 μM) | Yap1 mRNA in tumors, % control (Yap1 mRNA [2]) | Yap1 mRNA in tumors, % UTC (Yap1 mRNA [4]; 15 mg/kg daily for five days) | Yap1 mRNA in tumors, % UTC (Yap1 mRNA [4]; 30 mg/kg daily for five days) | Complement C3 ([5]; Day 42 (pre-dose)) | Complement C3 ([5]; day 42 (24 hr post-dose)) | CRP [5] | BAS [6] | EOS [6] | HCT [6] | HGB [6] | LUC [6] | LYM [6] | MCH [6] | MCHC [6] | MCV [6] | MON [6] | also measured |
| --- | --- | --- | --- | --- | --- | --- | --- | --- | --- | --- | --- | --- | --- | --- | --- | --- | --- | --- | --- | --- | --- |
| CGCCGATAAGGTACAC (cEt gapmer, phosphorothioate backbone, further chemistry not given here) [ION 792169, reference compound] | 96 % UTC | 89 % UTC | 93 % UTC | 98 % UTC | – | – | – | – | – | – | – | – | – | – | – | – | – | – | – | – | – |
| 715487 (kA*kT*kT*dA*d[5mC]*dT*dT*d[5mC]*dA*dT*dA*dG*d[5mC]*kT*kT*kA) [compound 715487] | – | – | – | – | 61 % control | – | – | – | – | – | – | – | – | – | – | – | – | – | – | – | – |
| 1197270 (TTAAAGTGTATGTCAG; cEt gapmer with 2'-OMe nucleoside, phosphorothioate, further chemistry not given here) [compound 1197270] | 48 % UTC | 24 % UTC | 12 % UTC | 7 % UTC | 54 % control | 55 % UTC | 38 % UTC | 103 mg/dL | 86 mg/dL | 9.8 mg/L | 0.4% | 2.7% | 44% | 12 g/dL | 1.2% | 54% | 22 pg | 28 g/dL | 79 fL | 3.5% | Kidney weight ([3]; end of study): 3.6 g; Liver weight ([3]; end of study): 15 g; Spleen weight ([3]; end of study): 2.0 g; body weight ([3]; terminal, prior to necropsy): 374 g; NEU [6]: 38%; PLT [6]: 452 10^3/μL; RBC [6]: 5.6e+06 µL⁻¹; RCDW [6]: 12%; Retic [6]: 1.1%; WBC [6]: 10600 µL⁻¹; MPV [6]: 7.1 fL; URINE P/C ratio (total protein to creatinine ratio) [7]: 14; UALB [8]: 1.3 mg/dL; UCRE [8]: 56 mg/dL; UTP [8]: 18 mg/dL |
| 1198439 (AGTGTATGTCAGAAGA; sugar, 5-methylcytosine, phosphorothioate modifications, further chemistry not given here) [compound 1198439] | 35 % UTC | 12 % UTC | 5 % UTC | 3 % UTC | 51 % control | 66 % UTC | 38 % UTC | 99 mg/dL | 94 mg/dL | 2.9 mg/L | 0.3% | 1.5% | 48% | 14 g/dL | 0.6% | 68% | 22 pg | 28 g/dL | 79 fL | 2.9% | NEU [6]: 27%; PLT [6]: 367 10^3/μL; RBC [6]: 6e+06 µL⁻¹; RCDW [6]: 12%; Retic [6]: 1.2%; WBC [6]: 10300 µL⁻¹; MPV [6]: 7.6 fL; UALB [8]: 0.1 mg/dL; UCRE [8]: 68 mg/dL; UTP [8]: 15 mg/dL |
| 958499 (ATTAGAGTATGTGGCA; 3-10-3 cEt gapmer, further chemistry not given here) [compound 958499] | 47 % UTC | 22 % UTC | 10 % UTC | 4 % UTC | 54 % control | 68 % UTC | 53 % UTC | 112 mg/dL | 89 mg/dL | 9.9 mg/L | 0.4% | 1.1% | 43% | 12 g/dL | 1.2% | 44% | 22 pg | 29 g/dL | 77 fL | 3.5% | NEU [6]: 49%; PLT [6]: 399 10^3/μL; RBC [6]: 5.6e+06 µL⁻¹; RCDW [6]: 12%; Retic [6]: 1.5%; WBC [6]: 12000 µL⁻¹; MPV [6]: 7.6 fL; UALB [8]: 0.1 mg/dL; UCRE [8]: 60 mg/dL; UTP [8]: 16 mg/dL |
| 1198440 (AAGTGTATGTCAGAAG; cEt, 2'-MOE, 5-methylcytosine, phosphorothioate modifications, further chemistry not given here) [compound 1198440] | 39 % UTC | 14 % UTC | 5 % UTC | 3 % UTC | 51 % control | 67 % UTC | 41 % UTC | 95 mg/dL | 88 mg/dL | 4.8 mg/L | 0.4% | 2.8% | 47% | 14 g/dL | 0.7% | 65% | 23 pg | 29 g/dL | 80 fL | 3.2% | NEU [6]: 28%; PLT [6]: 420 10^3/μL; RBC [6]: 5.9e+06 µL⁻¹; RCDW [6]: 12%; Retic [6]: 1.2%; WBC [6]: 10900 µL⁻¹; MPV [6]: 7.5 fL; UALB [8]: 0.2 mg/dL; UCRE [8]: 53 mg/dL; UTP [8]: 13 mg/dL |
| 1076453 (GTAATATTGCAATCTG; 3-10-3 cEt gapmer, further chemistry not given here) [compound 1076453] | 59 % UTC | 21 % UTC | 7 % UTC | 3 % UTC | 56 % control | 69 % UTC | 46 % UTC | 101 mg/dL | 88 mg/dL | 1.5 mg/L | 0.4% | 1.1% | 43% | 13 g/dL | 1.2% | 54% | 23 pg | 29 g/dL | 79 fL | 3.9% | NEU [6]: 39%; PLT [6]: 358 10^3/μL; RBC [6]: 5.5e+06 µL⁻¹; RCDW [6]: 15%; Retic [6]: 1.2%; WBC [6]: 10000 µL⁻¹; MPV [6]: 8.4 fL; UALB [8]: 0.1 mg/dL; UCRE [8]: 50 mg/dL; UTP [8]: 14 mg/dL |
